Experiments:
full-length RORγt = full-length RORγt (Homo sapiens (Human), UniProt P51449); experiment: RORγt 5×RORE Assay in Jurkat Cells (Assay 2); type: cell-based; settings: secreted Nanoluc luciferase 5×RORE reporter, 16-18 hrs, read-out: RORγt5X IC50 Range
Protocol: [formula] RORγt 5×RORE Assay in Jurkat Cells (Assay 2)
Compounds of the present invention were tested for RORγ inverse agonist activity in a cell-based, transcriptional activity assay. […] (Promega, Cat. #N1021) using KpnI and HindIII restriction sites. […] Luciferase activity in the conditioned supernatants was determined with NanoGlo® assay reagents (Promega, Cat. #N1130).

[1] = molecular target: recombinant RORγ Ligand Binding Domain (LBD) (Homo sapiens (Human), UniProt P51449); experiment: Radio-Ligand RORγ Binding Assay (Assay 1); settings: SPA competition with 25-hydroxy [26,27-3H]-cholesterol, cell-free; read-out: RORγ Binding Ki Range
Chain of recombinant RORγ Ligand Binding Domain (LBD) (P51449 269-508): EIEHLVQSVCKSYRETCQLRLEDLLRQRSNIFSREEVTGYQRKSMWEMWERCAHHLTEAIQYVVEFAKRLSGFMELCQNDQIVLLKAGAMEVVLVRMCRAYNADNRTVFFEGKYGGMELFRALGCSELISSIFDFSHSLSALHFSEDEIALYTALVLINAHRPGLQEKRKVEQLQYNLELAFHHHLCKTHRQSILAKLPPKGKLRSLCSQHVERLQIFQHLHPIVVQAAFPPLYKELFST
Protocol: Radio-Ligand RORγ Binding Assay (Assay 1)
Compounds of the present invention were tested for ability to bind to RORγ in a cell-free competition assay with commercially available radio-ligand (RL), 25-hydroxy [26,27-^3H]-cholesterol (PerkinElmer, Cat. #NET674250UC), for a ligand binding site on a recombinant RORγ Ligand Binding Domain (LBD) protein expressed as a 6×His-Glutathione-S-Transferase (GST) fusion. […] The plate was shaken at 700 rpm for 20 min and incubated for 10 min at rt, after which 40 μL of poly-Lys YSi SPA beads (PerkinElmer, Cat. #RPNQ0010) were added to achieve 50 μg of the beads per well. The plate was incubated on an orbital shaker for 20 min and then for 10 min without agitation at rt. SPA signal for tritium beta radiation was registered on PerkinElmer Microbeta plate reader. […] The percent inhibition vs. concentration data were fit into a four-parameter model, and IC50 values were calculated from the fit as the concentrations corresponding to the inflection points on the dose-response curves.

Chain of full-length RORγt (P51449 other isoform, or with tags, fused parts or gaps): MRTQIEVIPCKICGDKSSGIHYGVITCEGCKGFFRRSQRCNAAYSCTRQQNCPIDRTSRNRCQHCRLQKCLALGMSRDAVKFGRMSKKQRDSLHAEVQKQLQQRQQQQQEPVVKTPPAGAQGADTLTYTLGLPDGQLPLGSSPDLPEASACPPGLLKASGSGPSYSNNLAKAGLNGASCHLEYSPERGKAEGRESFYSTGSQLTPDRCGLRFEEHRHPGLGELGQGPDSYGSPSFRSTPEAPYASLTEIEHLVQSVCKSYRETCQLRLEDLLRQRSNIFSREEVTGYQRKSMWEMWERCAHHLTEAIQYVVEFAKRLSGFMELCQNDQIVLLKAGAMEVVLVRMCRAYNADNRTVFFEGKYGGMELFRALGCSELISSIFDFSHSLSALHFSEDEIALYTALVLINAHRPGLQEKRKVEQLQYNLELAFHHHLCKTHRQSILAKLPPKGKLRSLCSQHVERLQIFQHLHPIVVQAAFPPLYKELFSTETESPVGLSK

Structure (SMILES)	IC50 (full-length RORγt)	Ki [1]
CC(C)[C@H]1c2ncc(C(=O)NCc3ccc(C#N)cc3)cc2CN1Cc1ccc(C(F)(F)F)cc1 [Compound 64]	100 to 1000 nM	< 100 nM
CCS(=O)(=O)N1CCC(CNC(=O)c2cnc3c(c2)CN(Cc2ccc(C(F)(F)F)cc2)[C@H]3C(C)C)CC1 [Compound 109]	> 1000 nM	< 100 nM
CC(C)[C@H]1c2ncc(C(=O)NC[C@H]3CC[C@H](CC(=O)O)CC3)cc2CN1Cc1ccc(C(F)(F)F)cc1 [Compound 139]	100 to 1000 nM	< 100 nM
CC(C)[C@H]1c2ncc(C(=O)N[C@@H](CO)c3ccc(C#N)cc3)cc2CN1Cc1ccc(C(F)(F)F)cc1 [Compound 149]	100 to 1000 nM	< 100 nM
CC(C)[C@H]1c2ncc(C(=O)NCc3ccc(C#N)cn3)cc2CN1Cc1ccc(C(F)(F)F)cc1 [Compound 155]	> 1000 nM	100 to 1000 nM

Continued, values first:

IC50 (full-length RORγt)	Ki [1]	Structure (SMILES)
100 to 1000 nM	< 100 nM	CC(C)[C@H]1c2ncc(C(=O)NCC3CCN(S(C)(=O)=O)CC3)cc2CN1Cc1ccc(C(F)(F)F)cc1 [Compound 63]
< 100 nM	< 100 nM	CNS(=O)(=O)c1ccc(CNC(=O)c2cnc3c(c2)CN(Cc2ccc(C(F)(F)F)cc2)[C@H]3C(C)C)cc1 [Compound 67]
< 100 nM	< 100 nM	CCS(=O)(=O)c1cnc(CNC(=O)c2cnc3c(c2)CN(Cc2ccc(C(F)(F)F)cc2)[C@H]3C(C)C)c(C)c1 [Compound 142]
< 100 nM	< 100 nM	CCS(=O)(=O)c1cnc(CNC(=O)c2cnc3c(c2)CN(Cc2ccc(C(F)(F)F)cc2)[C@H]3C(C)C)c(F)c1 [Compound 144]
